The values that follow come from article PMC5962072, “Structural insights on the efficient catalysis of hydroperoxide reduction by Ohr: Crystallographic and molecular dynamics approaches” (PLoS ONE, 2018).

The target of this experiment is T1, XfOhr (Ohr from Xylella fastidiosa) (Xylella fastidiosa, UniProt Q9PCF4).
T1 construct: gene XF_1827
T1 sequence (Q9PCF4 1-143): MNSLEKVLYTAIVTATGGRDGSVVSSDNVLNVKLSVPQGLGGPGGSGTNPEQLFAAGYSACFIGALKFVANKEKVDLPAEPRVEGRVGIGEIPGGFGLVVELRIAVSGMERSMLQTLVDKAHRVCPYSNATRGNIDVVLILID

Regarding `NC(=O)CCCC[C@@H](S)CCS` [dihydrolipoamide], the “lipoamide-lipoamide dehydrogenase peroxidase-coupled assay, NADH decay at 340 nm” value was “XfOhr R19A and XfOhr E51A presented only residual dihydrolipoamide-dependent peroxidase activity”.
